Organism: Rattus norvegicus
Experiment: DrugMatrix - Regimen: Daily Repeat
Format: toxicity, organism-based, Sprague-Dawley
Design: regimen Daily Repeat, gender Male, age 6-8 weeks
Conditions: in vivo, po, route oral GAVAGE, vehicle .5 % CMC; for BASOPHIL / EOSINOPHIL / ERYTHROCYTE COUNT / HEMATOCRIT / HEMOGLOBIN / LEUKOCYTE COUNT / LYMPHOCYTE / MEAN CORPUSCULAR HEMOGLOBIN / MEAN CORPUSCULAR HEMOGLOBIN CONCENTRATION / MEAN CORPUSCULAR VOLUME / MONOCYTE / NEUTROPHIL / PLATELET COUNT: tissue Blood; for ALANINE AMINOTRANSFERASE / ALBUMIN / ALKALINE PHOSPHATASE / ASPARTATE AMINOTRANSFERASE / BLOOD UREA NITROGEN / CHLORIDE / CHOLESTEROL / CREATINE PHOSPHOKINASE / CREATININE / GLUCOSE / PHOSPHORUS / POTASSIUM / SODIUM / TOTAL BILIRUBIN / TOTAL PROTEIN: tissue Plasma
[1] = 0 mg/kg, 72 h, dose level Control, time 3 day
[2] = 0 mg/kg, 120 h, dose level Control, time 5 day
[3] = 25 mg/kg, 72 h, dose level Low, time 3 day
[4] = 25 mg/kg, 120 h, dose level Low, time 5 day

C=C(CC)C(=O)c1ccc(OCC(=O)O)c(Cl)c1Cl [ETHACRYNIC ACID]
BASOPHIL [1]: 0%
EOSINOPHIL [1]: 0%
ERYTHROCYTE COUNT [1]: 6.19 x10E6/uL
HEMATOCRIT [1]: 36.94%
HEMOGLOBIN [1]: 14.58 G/DL
LEUKOCYTE COUNT [1]: 11.54 x10E3/uL
LYMPHOCYTE [1]: 84.8%
MEAN CORPUSCULAR HEMOGLOBIN [1]: 23.58 pg
MEAN CORPUSCULAR HEMOGLOBIN CONCENTRATION [1]: 39.44 G/DL
MEAN CORPUSCULAR VOLUME [1]: 59.76 fL
MONOCYTE [1]: 1.4%
NEUTROPHIL [1]: 13.8%
PLATELET COUNT [1]: 1068.8 x10E3/uL
ALANINE AMINOTRANSFERASE [1]: 38.17 u/L
ALBUMIN [1]: 3.88 G/DL
ALKALINE PHOSPHATASE [1]: 391.33 u/L
ASPARTATE AMINOTRANSFERASE [1]: 69.83 u/L
BLOOD UREA NITROGEN [1]: 15 mg/dL
CHLORIDE [1]: 104.17 MEQ/L
CHOLESTEROL [1]: 72.17 mg/dL
CREATINE PHOSPHOKINASE [1]: 174.33 u/L
CREATININE [1]: 0.58 mg/dL
GLUCOSE [1]: 192.67 mg/dL
PHOSPHORUS [1]: 10.52 mg/dL
POTASSIUM [1]: 6.8 MEQ/L
SODIUM [1]: 149.67 MEQ/L
TOTAL BILIRUBIN [1]: 0.78 mg/dL
TOTAL PROTEIN [1]: 6.28 G/DL
BASOPHIL [2]: 0%
EOSINOPHIL [2]: 0.17%
ERYTHROCYTE COUNT [2]: 6.72 x10E6/uL
HEMATOCRIT [2]: 40.02%
HEMOGLOBIN [2]: 15.83 G/DL
LEUKOCYTE COUNT [2]: 9.5 x10E3/uL
LYMPHOCYTE [2]: 87.17%
MEAN CORPUSCULAR HEMOGLOBIN [2]: 23.57 pg
MEAN CORPUSCULAR HEMOGLOBIN CONCENTRATION [2]: 39.62 G/DL
MEAN CORPUSCULAR VOLUME [2]: 59.55 fL
MONOCYTE [2]: 1.67%
NEUTROPHIL [2]: 11%
PLATELET COUNT [2]: 1053.67 x10E3/uL
ALANINE AMINOTRANSFERASE [2]: 26.33 u/L
ALBUMIN [2]: 4.02 G/DL
ALKALINE PHOSPHATASE [2]: 316.67 u/L
ASPARTATE AMINOTRANSFERASE [2]: 61.33 u/L
BLOOD UREA NITROGEN [2]: 18.67 mg/dL
CHLORIDE [2]: 108 MEQ/L
CHOLESTEROL [2]: 65.17 mg/dL
CREATINE PHOSPHOKINASE [2]: 161.17 u/L
CREATININE [2]: 0.75 mg/dL
GLUCOSE [2]: 177.33 mg/dL
PHOSPHORUS [2]: 9.72 mg/dL
POTASSIUM [2]: 6.18 MEQ/L
SODIUM [2]: 150.5 MEQ/L
TOTAL BILIRUBIN [2]: 0.68 mg/dL
TOTAL PROTEIN [2]: 6.55 G/DL
BASOPHIL [3]: 0%
EOSINOPHIL [3]: 0%
ERYTHROCYTE COUNT [3]: 5.63 x10E6/uL
HEMATOCRIT [3]: 33.93%
HEMOGLOBIN [3]: 13.5 G/DL
LEUKOCYTE COUNT [3]: 12.83 x10E3/uL
LYMPHOCYTE [3]: 81%
MEAN CORPUSCULAR HEMOGLOBIN [3]: 23.97 pg
MEAN CORPUSCULAR HEMOGLOBIN CONCENTRATION [3]: 39.8 G/DL
MEAN CORPUSCULAR VOLUME [3]: 60.23 fL
MONOCYTE [3]: 2.67%
NEUTROPHIL [3]: 16.33%
PLATELET COUNT [3]: 1220 x10E3/uL
ALANINE AMINOTRANSFERASE [3]: 34.67 u/L
ALBUMIN [3]: 3.8 G/DL
ALKALINE PHOSPHATASE [3]: 289.67 u/L
ASPARTATE AMINOTRANSFERASE [3]: 61.67 u/L
BLOOD UREA NITROGEN [3]: 16.33 mg/dL
CHLORIDE [3]: 102.67 MEQ/L
CHOLESTEROL [3]: 78 mg/dL
CREATINE PHOSPHOKINASE [3]: 150.67 u/L
CREATININE [3]: 0.67 mg/dL
GLUCOSE [3]: 178 mg/dL
PHOSPHORUS [3]: 11.3 mg/dL
POTASSIUM [3]: 6.67 MEQ/L
SODIUM [3]: 148 MEQ/L
TOTAL BILIRUBIN [3]: 0.5 mg/dL
TOTAL PROTEIN [3]: 6.23 G/DL
BASOPHIL [4]: 0%
EOSINOPHIL [4]: 0%
ERYTHROCYTE COUNT [4]: 6.67 x10E6/uL
HEMATOCRIT [4]: 39.93%
HEMOGLOBIN [4]: 15.7 G/DL
LEUKOCYTE COUNT [4]: 13.37 x10E3/uL
LYMPHOCYTE [4]: 91.33%
MEAN CORPUSCULAR HEMOGLOBIN [4]: 23.6 pg
MEAN CORPUSCULAR HEMOGLOBIN CONCENTRATION [4]: 39.37 G/DL
MEAN CORPUSCULAR VOLUME [4]: 59.9 fL
MONOCYTE [4]: 2.33%
NEUTROPHIL [4]: 6.33%
PLATELET COUNT [4]: 1183.33 x10E3/uL
ALANINE AMINOTRANSFERASE [4]: 25 u/L
ALBUMIN [4]: 4.03 G/DL
ALKALINE PHOSPHATASE [4]: 323.33 u/L
ASPARTATE AMINOTRANSFERASE [4]: 56.67 u/L
BLOOD UREA NITROGEN [4]: 14.33 mg/dL
CHLORIDE [4]: 104.33 MEQ/L
CHOLESTEROL [4]: 77.33 mg/dL
CREATINE PHOSPHOKINASE [4]: 160 u/L
CREATININE [4]: 0.6 mg/dL
GLUCOSE [4]: 169 mg/dL
PHOSPHORUS [4]: 10.6 mg/dL
POTASSIUM [4]: 6.23 MEQ/L
SODIUM [4]: 151 MEQ/L
TOTAL BILIRUBIN [4]: 0.6 mg/dL
TOTAL PROTEIN [4]: 6.77 G/DL
